Experimental data as given in patent US20110183978A1, “Phenylpyri(mi)dinylazoles” (Bayer CropScience AG, priority 2009, published 2011).
Where two headings read alike, the source gives them in different places.

What was measured:
[1] = test system: Fusarium proliferatum; experiment: Example I: production of fumonisin FB1 by Fusarium proliferatum (microtitre plates); assay type: cell-based; conditions: 120 h
[2] = physchem
[3] = test system: Alternaria solani; experiment: Example M: in vivo test on Alternaria solani (leaf blotch disease/tomato/protective); conditions: 168 h, tomato, protective, 500 ppm active substance, assessed 7 days after inoculation, read-out: % Wirkungsgrad (activity level)
Summary of the method: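 Alternaria solani infection on tomato scored 7 days post-inoculation. Before inoculation, young plants received a protective spray at the stated application dose; formulation was compound mixed with N,N-dimethylformamide and emulsifier, water-diluted.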

[4] = test system: Sphaerotheca fuliginea; experiment: Example L: in vivo test on Sphaerotheca fuliginea (powdery mildew on cucumber/protective); conditions: Podosphaera fuliginea, 168 h, cucumber, protective, assessment 7 days after inoculation, read-out: % Wirkungsgrad
Protocol: Solvent: 49 parts by weight N,N-dimethylformamide Emulsifier: 1 part by weight alkylaryl polyglycol ethers For the preparation of a suitable active substance preparation, 1 part by weight of active substance is mixed with the stated quantities of solvent and emulsifier and the concentrate is diluted to the desired concentration with water. For the testing for protective activity, young cucumber plants are sprayed with the active substance preparation at the stated application dosage. One day after the treatment, the plants are inoculated with a spore suspension of Sphaerotheca fuliginea. Next, the plants are placed in a greenhouse at 70% relative atmospheric humidity and a temperature of 23° C. 7 days after the inoculation, the assessment takes place.

[5] = test system: Fusarium graminearum; experiment: microbe, parasite or virus in culture; assay type: cell-based
[6] = test system: Venturia inaequalis; experiment: Example O: in vivo test on Venturia inaequalis (apple scab/protective); conditions: 240 h, protective, assessment 10 days after inoculation, read-out: % Wirkungsgrad
Protocol: (§1) Emulsifier: 1 part by weight alkylaryl polyglycol ethers For the preparation of a suitable active substance preparation, 1 part by weight of active substance is mixed with the stated quantities of solvent and emulsifier and the concentrate is diluted to the desired concentration with water. For the testing for protective activity, young plants are sprayed with the active substance preparation at the stated application dosage. […] 10 days after the inoculation, the assessment takes place.

[7] = test system: Botrytis cinerea; experiment: Example P: in vivo test on Botrytis cinerea (gray mould on bean/protective); conditions: 48 h, bean, protective, 250 ppm active substance, assessed 2 days after inoculation, read-out: % Wirkungsgrad (activity level)
Protocol: as §1, with “dosage. After drying of the spray coating, 2 small pieces of agar with Botrytis cinerea growing on them are laid on every leaf.” for “dosage.”, “2” for “10”, “size of the infection blotches on the leaves is assessed.” for “assessment takes place.”

[8] = Fusarium proliferatum growth, OD 620, 5 days, read-out: % Inhibition des Pilzwachstums bei 50 μM
[9] = Fusarium proliferatum, 5 days at 20° C., HPLC-MS/MS, read-out: % Inhibition der FB1 produktion bei 50 μM
[10] = LogPA (logP of the stated pure compound or, in a mixture, of the main isomer, 1-substituted 3-aryl-1H-pyrazole)
[11] = 72 h, read-out: % Inhibition des Pilzwachstums bei 50 μM
[12] = 168 h, read-out: % Inhibition der DON/AcDON produktion bei 50 μM

| SMILES | inhibition at 50 µM [1, 8] [%] | inhibition at 50 µM [1, 9] [%] | chromatographic logP [2, 10] | pest or weed control at 500 ppm [3] [%] | pest or weed control at 500 ppm [4] [%] | chromatographic logP ([2]; LogPA) | inhibition at 50 µM [5, 11] [%] | inhibition at 50 µM [5, 12] [%] | pest or weed control at 100 ppm [6] [%] | pest or weed control at 250 ppm [7] [%] |
| --- | --- | --- | --- | --- | --- | --- | --- | --- | --- | --- |
| N#Cc1cccc(-c2c(-c3ccncc3)cnn2C2CCCCO2)c1 (stereo not drawn) [Compound 60, 3-[4-(pyridin-4-yl)-1-(tetrahydro-2H-pyran-2-yl)-1H-pyrazol-5-yl]benzonitrile] | 92 | 100 | 1.23 | – | – | – | – | – | – | – |
| COCC(=O)Nc1cc(-c2cn(CC(C)C)nc2-c2ccc(F)cc2)ccn1 [Compound 166] | 98 | 100 | – | 95 | 97 | 2.96 | 84 | 100 | – | – |
| CCC(=O)Nc1cc(-c2c(-c3ccc(Cl)cc3F)nn(C)c2SC)ccn1 [Compound 195] | 17 | 100 | – | 80 | – | 2.7 | 0 | 80 | – | – |
| CC(=O)Nc1cc(-c2cn(CC(F)F)nc2-c2ccc(F)cc2)ccn1 [Compound 242] | – | – | – | 88 | 97 | 1.74 | – | – | 89 | 99 |
| CC(C)C(=O)Nc1cc(-c2cn(CC3CC3(Cl)Cl)nc2-c2ccc(F)cc2)ccn1 (stereo not drawn) [Compound 254] | – | – | – | 94 | 92 | 3.17 | 16 | 99 | 73 | – |
| FC(F)(F)c1cccc(-c2nn(C3CCCCO3)cc2-c2ccnc3[nH]ccc23)c1 (stereo not drawn) [Compound 50] | 8 | 89 | 2.93 | – | – | – | – | – | – | – |
| CCC(=O)Nc1cc(-c2c(-c3ccc(F)cc3O)nn(C)c2OC(F)F)ccn1 [Compound 196] | 25 | 100 | – | 100 | – | 2.12 | – | – | – | – |
| Fc1ccc(-c2nn(C3CCCCO3)cc2-c2ccnc3[nH]ccc23)cc1 (stereo not drawn) [Compound 20] | 65 | 100 | 2.08 | – | – | – | 21 | 87 | – | – |
| Clc1ccc(-c2c(-c3ccncc3)cnn2C2CCCCO2)cc1 (stereo not drawn) [Compound 70, 4-[5-(4-chlorophenyl)-1-(tetrahydro-2H-pyran-2-yl)-1H-pyrazol-4-yl]pyridine] | 0 | 92 | 1.52 | – | – | – | – | – | – | – |
| CC(C)Cn1cc(-c2ccncn2)c(-c2cccc(Cl)c2)n1 [Compound 5] | 79 | 100 | 3.27 | 90 | 70 | – | 97 | 100 | – | – |
| COCC(=O)Nc1cc(-c2cn(CC(F)F)nc2-c2ccc(F)cc2)ccn1 [Compound 216] | 97 | 100 | – | 95 | 89 | 2.27 | – | – | – | – |
| CC(C)n1cc(-c2ccnc(NC(=O)c3ccccc3)c2)c(-c2ccc(F)cc2)n1 [Compound 205] | – | – | – | 95 | 100 | 3.2 | – | – | 91 | 100 |
| CC(C)Cn1cc(-c2ccnc(NC(=O)C3CC3)c2)c(-c2ccc(F)cc2)n1 [Compound 165] | 90 | 100 | 2.6 | 95 | 86 | – | 64 | 100 | – | – |
| COCC(=O)Nc1cc(-c2cn(CC3CC3)nc2-c2ccc(F)cc2)ccn1 [Compound 223] | 96 | 100 | – | 90 | 91 | 2.61 | 99 | 97 | – | – |
| Cc1nccc(-c2cn(C3CCCCO3)nc2-c2ccc(F)cc2)n1 (stereo not drawn) [Compound 29] | 34 | 82 | 2.53 | 78 | 70 | – | – | – | – | – |
| Fc1ccc(-c2nn(C3CCCCO3)cc2-c2ncnc3[nH]ccc23)cc1 (stereo not drawn) [Compound 66] | 40 | 85 | 1.69 | – | – | – | – | – | – | – |
| N#CCn1cc(-c2ccncc2)c(-c2ccc(F)cc2)n1 [Compound 180] | – | – | – | – | – | 0.89 | – | – | 96 | 93 |
| CC(C)Cn1cc(-c2ccnc(NC(=O)Cc3ccccc3)c2)c(-c2ccc(F)cc2)n1 [Compound 191] | 1 | 96 | – | – | – | 3.54 | – | – | – | – |
| CC(C)(C)n1cc(-c2ccncc2)c(-c2ccc(F)cc2)n1 [Compound 58] | 42 | 89 | 2.62 | – | – | – | – | – | – | – |
| c1ccc(Oc2ccc(-c3c(-c4ccncc4)cnn3C3CCCCO3)cc2)cc1 (stereo not drawn) [Compound 59, 4-[5-(4-phenoxyphenyl)-1-(tetrahydro-2H-pyran-2-yl)-1H-pyrazol-4-yl]pyridine] | 0 | 95 | 1.88 | – | – | – | – | – | – | – |
| CCC(=O)Nc1cc(-c2cn(CC3CC3(Cl)Cl)nc2-c2ccc(F)cc2)ccn1 (stereo not drawn) [Compound 249] | – | – | – | 94 | 92 | 2.8 | – | – | 96 | 100 |
| CCC(=O)Nc1cc(-c2cn(C3CCN(C(=O)OC(C)(C)C)CC3)nc2-c2ccc(F)cc2)ccn1 [Compound 193] | 0 | 85 | – | 93 | – | 3.03 | – | – | – | – |
| Fc1ccc(-c2nn(C3CCCCO3)cc2-c2ccnc3ccccc23)cc1 (stereo not drawn) [Compound 54] | 47 | 100 | 2.46 | – | – | – | 31 | 85 | – | – |
| CC(C)(O)C(=O)Nc1cc(-c2cn(CC(F)F)nc2-c2ccc(F)cc2)ccn1 [Compound 243] | – | – | – | 100 | 95 | 2.18 | – | – | 98 | 75 |
| COCC(=O)Nc1cc(-c2c(-c3ccc(Cl)cc3F)nn(C)c2SC)ccn1 [Compound 200] | 1 | 99 | – | 93 | – | 3 | – | – | – | – |
| COCCn1cc(-c2ccnc(NC(=O)COC)c2)c(-c2ccc(F)cc2)n1 [Compound 163] | 72 | 100 | 2.05 | 93 | 93 | – | 100 | 100 | – | – |
| CCC(=O)Nc1cc(-c2cn(Cc3ccccc3F)nc2-c2ccc(F)cc2)ccn1 [Compound 213] | 56 | 100 | – | 90 | 74 | 2.69 | 0 | 100 | – | 91 |
| CCOCCn1cc(-c2ccncc2)c(-c2ccc(F)cc2)n1 [Compound 179] | – | – | – | 100 | 74 | 1.25 | – | – | 100 | 100 |
| CCC(=O)Nc1cc(-c2cn(CCOC)nc2-c2ccc(F)cc2)ccn1 [Compound 153, N-{4-[3-(4-fluorophenyl)-1-(2-methoxyethyl)-1H-pyrazol-4-yl]pyridin-2-yl}propanamide] | 48 | 100 | 1.61 | 90 | – | – | 56 | 100 | – | – |
| CC(C)n1cc(-c2ccnc(NC(=O)C(C)(C)O)c2)c(-c2ccc(F)cc2)n1 [Compound 209] | – | – | – | 95 | 100 | 2.42 | – | – | 89 | 100 |
